We go through nine molecules from patent publication US8203011B2, “3′,4′,5-trimethoxy flavone derivatives as stimulant of mucus secretion, method for the same, and pharmaceutical composition comprising the same” (Dong-A Pharm. Co., Ltd., priority 2007, dated 2012).

Assay [1] deals with human mucoepidermoid pulmonary carcinoma cell line NCI-H292. The assay can be described thus: Mucin secretion (MUC4, MUC5AC) by ELISA in NCI-H292 cells. The class given is cell-based. The conditions noted are these: 24 hours, read-out: % increase in mucin secretion vs. non-treated control group; for activation at 0.8 µg/mL: 0.8 μg/mL; for activation at 4 µg/mL: 4 μg/mL; for activation at 20 µg/mL: 20 μg/mL; for activation at 100 µg/mL: 100 μg/mL. As for the experimental part:
2×10^5 cells/well of the human mucoepidermoid pulmonary carcinoma cell line NCI-H292 (ATCC, #CRL-1848) were seeded on a 96-well plate, and treated with 3′,4′,5-trimethoxy flavone derivatives at various concentrations of 0.16 to 100 μg/mL for 24 hours. Thereafter, secretion levels of representative transmembrane mucin MUC4 and secretory mucin MUC5AC were measured by enzyme-linked immunosorbent assay (ELISA).
For orientation: An ELISA detects its analyte on a solid surface through an enzyme-linked reagent.

In assay [2] the test system is rabbit model of dry eye syndrome. Briefly: Rose Bengal assay of ocular surface damage in N-acetylcysteine-induced rabbit dry eye syndrome model. The class given is in vivo, New Zealand White (NZW) rabbits. The conditions noted are these: 0.5% solution instilled into conjunctival sac 4 times/day (0.1 mL) for seven days; Mean ± S.D. On the procedure: (§1) Male New Zealand White (NZW) rabbits were randomly assigned into two groups, each consisting of 5 animals. In order to induce dry eye syndrome, N-acetylcysteine was first dissolved at a concentration of 20% in physiological saline. Then, the rabbit's lower eyelid was pulled slightly away from the globe to form a cup shape and the above-prepared N-acetylcysteine solution was instilled into the conjunctival sac six times every 2 hours, resulting in establishment of an animal model of dry eye syndrome. 3′,4′,5-trimethoxy flavone derivatives were dissolved at a concentration of 0.5% in a 0.1N sodium hydroxide solution which was then titrated to pH 7.0 to 8.0 with 10% acetic acid. From the following day after induction of dry eye syndrome, the titrated 3′,4′,5-trimethoxy flavone derivatives were repeatedly instilled into conjunctival sacs of animals at a dose frequency of 4 times/day (0.1 mL/each time) for seven consecutive days. On the next day following the induction of dry eye syndrome and upon completion of the experiment, the degree of ocular surface damage was evaluated to calculate a damage decrease rate (%) using Rose Bengal assay, and mucus secretion in the conjunctiva was quantitatively analyzed using Alcian blue assay. More specifically referring to Rose Bengal assay, 10 μl of a 1% Rose Bengal solution was dropped into the eyes of animals, and distribution and intensity of Rose Bengal staining were scored according to the method disclosed in Urashima et al., Cornea, 23:613-9, 2004. For Alcian blue assay, the rabbit's conjunctivae were excised, weighed, stained with a 0.1% Alcian blue solution for 2 hours and then washed with a 0.25 M sucrose solution. Following extraction with a 0.5 M magnesium chloride solution, the absorbance was measured at 605 nm.

The test system is the same in assay [3]. The assay can be described thus: Alcian blue assay of conjunctival mucus secretion in N-acetylcysteine-induced rabbit dry eye syndrome model. It is filed as in vivo, New Zealand White (NZW) rabbits. The conditions noted are these: 0.5% solution instilled 4 times/day (0.1 mL) for seven days; conjunctiva, absorbance at 605 nm; Mean ± S.D. On the procedure: as §1

As for `COc1ccc(-c2cc(=O)c3c(OC)cc(OCC(=O)NS(C)(=O)=O)cc3o2)cc1OC` [Example 9, 7-{(methylsulfonylcarbamoyl)methyloxy}-3′,4′,5-trimethoxy flavone], in assay [1], the activation at 0.8 µg/mL worked out at 9.7%, the activation at 4 µg/mL was found to be 15.9%, the activation at 20 µg/mL was 37.4% and the activation at 100 µg/mL was found to be 43.3%. Moreover, in assay [2], the “Rose Bengal Assay Damage decrease rate (%)” value came to 76.8 ± 8.4 %. In addition, in assay [3], the “Alcian Blue Assay Absorbance/g tissue” value worked out at 0.35 ± 0.13 Absorbance/g tissue.

Consider `COc1ccc(-c2cc(=O)c3c(OC)cc(OCC(=O)NC(C)=O)cc3o2)cc1OC` [Example 12, 7-{(acetylcarbamoyl)methyloxy}-3′,4′,5-trimethoxy flavone], for which, in assay [1], the activation at 0.8 µg/mL came to 15.2%, the activation at 4 µg/mL turned out to be 13.6%, the activation at 20 µg/mL came out at 20.5% and the activation at 100 µg/mL turned out to be 30.2%.

For `COc1ccc(-c2cc(=O)c3c(OC)cc(OCC(=O)NS(=O)(=O)c4ccccc4)cc3o2)cc1OC` [Example 5, 7-{(N-benzenesulfonylcarbamoyl)methyloxy}-3′,4′,5-trimethoxy flavone], in assay [1], the activation at 0.8 µg/mL turned out to be 43.9%, the activation at 4 µg/mL came out at 45.4%, the activation at 20 µg/mL was 35.4% and the activation at 100 µg/mL came out at 70.9%. For the same molecule, the “Rose Bengal Assay Damage decrease rate (%)” value in assay [2] stood at 70.1 ± 5.2 %. For the same molecule, the “Alcian Blue Assay Absorbance/g tissue” value in assay [3] is on record as 0.32 ± 0.09 Absorbance/g tissue.

Consider `COc1ccc(-c2cc(=O)c3c(OC)cc(OCc4nnn[nH]4)cc3o2)cc1OC` [Example 1, 7-(tetrazol-5-ylmethyloxy)-3′,4′,5-trimethoxy flavone], for which, in assay [1], the activation at 0.8 µg/mL came out at 18.7%, the activation at 4 µg/mL was determined as 28.1%, the activation at 20 µg/mL was 57.8% and the activation at 100 µg/mL is 52%.

For `COc1ccc(-c2cc(=O)c3c(OC)cc(OCC(=O)NC#N)cc3o2)cc1OC` [Example 4, 7-{(N-cyanocarbamoyl)-methyloxy}-3′,4′,5-trimethoxy flavone], in assay [1], the activation at 20 µg/mL is 4.3% and the activation at 100 µg/mL was found to be 25.2%. Besides, in assay [2], the “Rose Bengal Assay Damage decrease rate (%)” value stood at 83.8 ± 4.6 %. Further, in assay [3], the “Alcian Blue Assay Absorbance/g tissue” value is 0.24 ± 0.19 Absorbance/g tissue.

For `COc1ccc(-c2cc(=O)c3c(OC)cc(OCC(=O)NC(N)=O)cc3o2)cc1OC` [Example 10, 7-{(carbamylcarbamoyl)methyloxy}-3′,4′,5-trimethoxy flavone], in assay [1], the activation at 4 µg/mL turned out to be 6.7%, the activation at 20 µg/mL was 15.4% and the activation at 100 µg/mL turned out to be 25.9%.

As to `COc1ccc(-c2cc(=O)c3c(OC)cc(OCC(N)=O)cc3o2)cc1OC` [Example 3, 7-{(carbamoyl)methyloxy}-3′,4′,5-trimethoxy flavone], in assay [1], the activation at 0.8 µg/mL amounted to 2.2%, the activation at 4 µg/mL was 6.6%, the activation at 20 µg/mL is 10.4% and the activation at 100 µg/mL was 15.8%.

Turning to `COc1ccc(-c2cc(=O)c3c(OC)cc(OCC(=O)O)cc3o2)cc1OC.O` [7-carboxymethyloxy-3′,4′,5-trimethoxy flavone monohydrate], in assay [1], the activation at 0.8 µg/mL was found to be 24.8%, the activation at 4 µg/mL turned out to be 39.1%, the activation at 20 µg/mL came to 52.5% and the activation at 100 µg/mL was 75.9%. In addition, the “Rose Bengal Assay Damage decrease rate (%)” value in assay [2] amounted to 88.5 ± 4.7 %. Also, in assay [3], the “Alcian Blue Assay Absorbance/g tissue” value is recorded as 0.38 ± 0.08 Absorbance/g tissue.

As to `COc1ccc(-c2cc(=O)c3c(OC)cc(OCC(=O)NS(N)(=O)=O)cc3o2)cc1OC` [Example 8, 7-{(aminosulfonylcarbamoyl)methyloxy}-3′,4′,5-trimethoxy flavone], in assay [1], the activation at 0.8 µg/mL turned out to be 4.4%, the activation at 4 µg/mL was 10.2%, the activation at 20 µg/mL was 15.4% and the activation at 100 µg/mL was determined as 21.4%.
